Measurements published in patent publication US20230190811A1, “COMPOSITIONS AND METHODS FOR USE IN THE TREATMENT OF CANCER” (Poseida Therapeutics, Inc., priority 2020, published 2023).
Read-outs that look alike come from different tables or passages of the source.

Key:
cells = conditions: cited from earlier work
[1] = tested on: human pan T-cells with iC9 safety switch; experiment: iC9 safety switch test: viability of modified T cells incubated with AP1903 (7-AAD flow cytometry); type: cell-based
Text: Human pan T-cells were nucleofected using an Amaxa 4D nucleofector with one of four piggyBac transposons. Modified T cells receiving the “mock” condition were nucleofected with an empty piggyBac transposon. Modified T cells received either a piggyBac transposon containing a therapeutic agent alone (a sequence encoding a CARTyrin) or a piggyBac transposon containing an integrated iC9 sequence and a therapeutic agent (a sequence encoding a CARTyrin). To test the iC9 safety switch, each of the four modified T cells were incubated for 24 hours with 0, 0.1 nM, 1 nM, 10 nM, 100 nM or 1000 nM AP1903 (an induction agent for […]). Viability was assessed by flow cytometry using 7-aminoactinomycin D (7-AAD), a fluorescent intercalator, as a marker for cells undergoing apoptosis.

[2] = GLP repeat dose intravenous toxicity study of rimiducid in rats; conditions: rat, in vivo
Text: In vitro and in vivo studies have been conducted by Poseida with rimiducid and the iC9-based safety switch-containing CAR-T cell product P-BCMA-101 with similar results. A GLP repeat dose intravenous toxicity study in rats has recently been conducted by Poseida. […] (see Rimiducid Investigator's Brochure for further detail).

[3] = tested on: T cells carrying an iC9-based safety switch gene; conditions: cited from earlier work
[4] = set-up: plasma level as % of maximal concentration: dose or concentration left out as unconfirmed; conditions: cited from earlier work
relapsed/refractory MM = conditions: standard of care; cited from earlier work
[5] = molecular target: T1, B-cell maturation antigen (BCMA), human, expressed on cells (human, UniProt Q02223 1-184); experiment: screen of 4300+ human proteins, each individually expressed in human HEK293 cells
T1 construct: whole, on cells; also called Tumor necrosis factor receptor superfamily member 17 (TNFRSF17)
T1 sequence (looked up): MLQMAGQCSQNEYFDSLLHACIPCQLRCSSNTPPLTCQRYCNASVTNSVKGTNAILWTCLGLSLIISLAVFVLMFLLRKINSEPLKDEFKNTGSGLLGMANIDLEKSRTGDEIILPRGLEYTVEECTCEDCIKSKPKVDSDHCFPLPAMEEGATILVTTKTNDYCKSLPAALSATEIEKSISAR
Text: The Centyrin-Fc fusion protein was screened for binding against 4300+ human proteins. The vast majority of these human proteins represent cell surface membrane proteins, each individually expressed in human HEK293 cells.

For CC[C@H](C(=O)N1CCCC[C@H]1C(=O)O[C@H](CCc1ccc(OC)c(OC)c1)c1cccc(OCC(=O)NCCNC(=O)COc2cccc([C@@H](CCc3ccc(OC)c(OC)c3)OC(=O)[C@@H]3CCCCN3C(=O)[C@@H](CC)c3cc(OC)c(OC)c(OC)c3)c2)c1)c1cc(OC)c(OC)c(OC)c1 (relative stereo) [AP1903, 2-Piperidinecarboxylic acid, 1-[(2S)-1-oxo-2-(3,4,5-trimethoxyphenyl)butyl]-, 1,2-ethanediylbis[imino(2-oxo-2,1-ethanediyl)oxy-3,1-phenylene[(1R)-3-(3,4-dimethoxyphenyl)propylidene]]ester, [2S-[1(R*),2R*[S*[S*[1(R*),2R*]]]]]-(9C1)], the “amount needed in vitro for effective signaling of cells” value (cells) is given as 10 to 100 nM, the “lowest concentration at which apoptosis is induced” value ([1]; cells containing iC9 construct, 24 hours incubation) is given as ≤ 0.1 nM and the “shift of cell population to apoptotic quadrant with increasing induction agent” value ([1]; cells lacking the iC9 construct (CARTyrin only)) is given as “not observed”. For the same molecule, the toxic effect [2] was “No noticeable toxic effect”, the NOAEL ([2]; repeated (three times) intravenous administration) was > 15 mg/kg and the “modified T cells eliminated” value ([3]; 0.4 mg/kg 2-hour infusion, within 30 minutes following infusion) was 90%. The GVHD outcome ([3]; 0.4 mg/kg) was “GVHD completely resolved”, the adverse events ([3]; clinical studies published to date) was “no significant adverse events” and the “further depletion of modified T cells” value ([3]; during the next 24 hours) was “further log depletion”. The pharmacokinetics ([3]; human, in vivo) was “consistent and linear pharmacokinetics”, the toxicity ([3]; within and above the effective dose range (0.01-1.0 mg/kg)) was “effectively no toxicity” and the “plasma levels in relation to dose” value ([4]; 0.01-1.0 mg/kg) was “directly proportional to dose”. For the same molecule, the “plasma level as % of maximal concentration” value (“plasma level as %” for short) ([4]; 2 hours post-dose) was ~7%, the “plasma level as %” value ([4]; 10 hours post-dose) was ~1% and the well-tolerated doses ([4]; Phase I study) was “up to 1 mg/kg”. The safety and tolerability ([4]; all dose levels 0.01-1.0 mg/kg) was “safe and well tolerated at all dose levels”, the “plasma level as %” value [4] was “approximately 18%” and the “mean Cmax” value ([4]; single dose infused IV over 2 hours, 0.01-1.0 mg/kg dose range) was 10 to 1275 ng/mL.

In the case of “daratumumab: recently approved standard of care agent (mAb) for multiple myeloma”, the response rate (relapsed/refractory MM) is listed as ≤ 30%.

B1: Centyrin-Fc fusion protein (the Centyrin from P-BCMA-101 fused to Fc) (Fc fusion)
chain: MLPAPKNLVVSRITEDSARLSWTAPDAAFDSFPIRYIETLIWGEAIWLDVPGSERSYDLTGLKPGTEYAVVITGVKGGRFSSPLVASFTT
notes: not shown: Fc part, any linker and the order of the parts are not described
B1: binds [5].
